Columns and labels:
GST-JAK2 = target: T1, GST-JAK2 (Homo sapiens, UniProt O60674); assay: JAK2 kinase assay of the general description (alternative method, flash plate); format: biochemical; conditions: 1.0 μM ATP, read-out: IC50 with test in general description (named “alternative method to that given in the examples”) (“flash plate”)
T1 construct: the amino acid domain ASP751-VAL1129 of the JAK2 protein
Description: Baculovirus including the amino acid domain ASP751-VAL1129 of the JAK2 protein is obtainable by ProQinase, Freiburg, Germany. The virus is scaled up as following: Virus containing media is collected from the transfected cell culture and used for infection to increase its titer. Virus containing media obtained after two rounds of infection is used for large-scale protein expression. For large-scale protein expression 100 cm^2 round tissue culture plates are seeded with 5×10^7 cells/plate and infected with 1 mL of virus-containing media (approx. 5 MOIs). After 3 days the cells are scraped off the plate and centrifuged at 500 rpm for 5 min. Cell pellets from 10-20, 100 cm^2 plates, are re-suspended in 50 mL of ice-cold lysis buffer (25 mMTris-HCl, pH7.5, 2 mMEDTA, 1% NP-40, 1 mM DTT, 1 mMP MSF). The cells are stirred on ice for 15 min and then centrifuged at 5000 rpms for 20 min. The protein is purified by loading the centrifuged cell lysate onto a 2 mL glutathione-sepharose column and washed three times with 10 mL of 25 mM Tris-HCl, pH 7.5, 2 mM EDTA, 1 mM DTT, 200 mM NaCl. The GST-tagged proteins are then eluted by 10 applications (1 mL each) of 25 mM Tris-HCl, pH 7.5, 10 mM reduced-glutathione, 100 mM NaCl, 1 mM DTT, 10% Glycerol and stored at −70° C.
Cancer Cell; 5: 231-239]. The test compound is dissolved in DMSO (10 mM) and stored at −20° C. Serial dilutions are freshly made in DMSO and are […] concentrated than test solutions (“pre-dilution plates”). They are further diluted with pure water to yield “master plates” containing 3 times concentrated test solutions in 3% DMSO. The final volume of the assay is 30 μL containing 10 μL of test solution (1% DMSO), 10 μL assay mix including the assay components described by Garcia-Echeverria (2004) and in the following section as well as 10 μL enzyme. The pipetting steps can be programmed to be performed either on the MultiPROBE Iix, MultiPROBE IILx or HamiltonSTAR robots in the 96 well format.
The protein kinase assays are carried as described in details by Garcia-Echeverria (see above). The assay for JAK2 is carried out in 96-well plates at ambient temperature for 10 min (filter-biding method) or 30 min (flash plates) in a finial volume of 30 μL including the following components: 300 ng of GST-JAK2, 20 mM Tris-HCl, pH 7.5, 1.0 mM MnCl2, 10 mM MgCl2, 1 mM DTT, 3 μg/mL poly(Glu, Tyr) 4:1, 1% DMSO and 1.0 μM ATP (γ-[^33P]-ATP 0.1 μCi); The assays are terminated by the addition of 20 μl of 125 mM EDTA. The capturing of the phosphorylated peptides by the filter-binding method is performed as following: 40 μL of the reaction mixture are transferred onto Immobilon-PVDF membranes previously soaked for 5 min with methanol, rinsed with water, then soaked for 5 min with 0.5% H3PO4 and mounted on vacuum manifold with disconnected vacuum source. After spotting all samples, vacuum is connected and each well rinsed with 200 μl 0.5% H3PO4. Free membranes are removed and washed 4× on a shaker with 1.0% H3PO4, once with ethanol. Membranes are counted after drying at ambient temperature, mounting in Packard TopCount 96-well frame, and addition of 10 μl/well of Microscint. The plates are eventually sealed and counted in a microplate scintillation counter (TopCount NXT, TopCount NXT HTS, PerkinElmer, Brussels, Belgium).
The assays for the flash plate method is carried out in a total volume of 30 μL at RT in conventional 96-well flash plates. The reaction is stopped after 30 min by the addition of 20 μL of 125 mM EDTA The assay plates are then washed three times with PBS and dried at room temperature. The plates are sealed and counted in a microplate scintillation counter (TopCount NXT, TopCount NXT HTS). IC50 values are calculated by linear regression analysis of the percentage inhibition of the compound either in duplicate, at four concentrations (usually 0.01, 0.1, 1 and 10 μM) or as 8 single point IC50 starting at 10 μM following by 1:3 dilutions.

GST-JAK2(808-1132) = target: T2, GST-JAK2(808-1132) (Homo sapiens, UniProt O60674); assay: EPK JAK/TYK-kinase family profiling assay (Caliper mobility shift), JAK2; format: biochemical; conditions: Caliper mobility shift assay of Example 187, 20 μM ATP, read-out: IC50 with Test in present Example
T2 construct: GST-JAK2(808-1132) is purchased from Invitrogen; purchased Invitrogen (Carlsbad, USA) #4288
T2 sequence (O60674 808-1132): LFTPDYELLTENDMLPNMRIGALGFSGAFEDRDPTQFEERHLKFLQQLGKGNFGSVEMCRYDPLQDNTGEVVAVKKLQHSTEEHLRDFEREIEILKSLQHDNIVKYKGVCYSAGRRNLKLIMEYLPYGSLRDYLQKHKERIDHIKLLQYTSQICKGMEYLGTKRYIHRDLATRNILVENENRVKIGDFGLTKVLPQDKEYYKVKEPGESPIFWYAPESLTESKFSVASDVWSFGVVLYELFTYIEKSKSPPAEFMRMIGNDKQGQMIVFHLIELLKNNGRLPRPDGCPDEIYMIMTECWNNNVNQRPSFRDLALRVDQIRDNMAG
Procedure, shortened: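 Caliper mobility-shift assay with the GST-tagged kinase domain and a fluorescently labeled peptide substrate plus ATP, run 60 min at 30° C and then stopped with EDTA buffer. Turnover was taken as the substrate/product ratio. Compounds were tested at eight final concentrations from 10 to 0.003 μM.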

T1 sequence (O60674 751-1129): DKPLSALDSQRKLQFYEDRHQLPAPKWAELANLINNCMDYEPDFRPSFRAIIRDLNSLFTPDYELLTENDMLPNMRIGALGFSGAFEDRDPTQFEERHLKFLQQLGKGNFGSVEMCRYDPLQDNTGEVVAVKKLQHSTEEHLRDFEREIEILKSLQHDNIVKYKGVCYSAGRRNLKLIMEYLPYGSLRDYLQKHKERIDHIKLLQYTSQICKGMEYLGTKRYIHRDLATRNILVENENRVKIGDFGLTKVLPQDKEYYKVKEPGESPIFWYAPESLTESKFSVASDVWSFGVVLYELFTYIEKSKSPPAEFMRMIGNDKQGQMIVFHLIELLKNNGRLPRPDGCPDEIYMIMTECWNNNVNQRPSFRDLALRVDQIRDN

Compound: COc1cc(Nc2nc3cccc(-c4ccc(CN)cc4)c3o2)cc(OC)c1OC (hydrate or solvate) [Example 29, [7-(4-Aminomethyl-phenyl)-benzooxazol-2-yl]-(3,4,5-trimethoxy-phenyl)-amine]
- melting point: 208 to 211 °C

Compound: COc1cc(Nc2nc3ccnc(-c4ccc(N)cc4)c3o2)cc(OC)c1OC (hydrate or solvate) [Example 36, [4-(4-Amino-phenyl)-oxazolo[5,4-c]pyridin-2-yl]-(3,4,5-trimethoxy-phenyl)-amine]
- melting point: 148 to 151 °C

Compound: COc1cc(Nc2nc3cccc(-c4ccccc4)c3o2)cc(OC)c1OC [Example 2, (7-Phenyl-benzooxazol-2-yl)-(3,4,5-trimethoxy-phenyl)-amine]
- melting point: 182 to 185 °C

Compound: COc1cc(Nc2nc3cccc(-c4cccc(CNC(C)=O)c4)c3o2)cc(OC)c1OC [Example 33, N-{3-[2-(3,4,5-Trimethoxy-phenylamino)-benzooxazol-7-yl]-benzyl}-acetamide]
- IC50 (GST-JAK2): 0.29 µM
- melting point: 203 to 204 °C

Compound: COc1cc(Nc2nc3cccc(-c4cccc(NC(C)=O)c4)c3o2)cc(OC)c1OC [Example 28, N-{3-[2-(3,4,5-Trimethoxy-phenylamino)-benzooxazol-7-yl]-phenyl}-acetamide]
- IC50 (GST-JAK2): 0.31 µM
- melting point: 170 to 172 °C

Compound: COc1cc(Nc2nc3cccc(-c4ccc(NS(C)(=O)=O)cc4)c3o2)cc(OC)c1OC (hydrate or solvate) [Example 26, N-{4-[2-(3,4,5-Trimethoxy-phenylamino)-benzooxazol-7-yl]-phenyl}-methanesulfonamide]
- melting point: 222 to 225 °C

Compound: CNC(=O)c1cc(-c2cccc3nc(Nc4cc(OC)c(OC)c(OC)c4)oc23)cs1 (hydrate or solvate) [Example 34, 4-[2-(3,4,5-Trimethoxy-phenylamino)-benzooxazol-7-yl]-thiophene-2-carboxylic acid methylamide]
- melting point: 260 to 262 °C

Compound: COc1cc(Nc2nc3cccc(-c4ccc(N)cc4)c3o2)cc(OC)c1OC [Example 11, [7-(4-Amino-phenyl)-benzooxazol-2-yl]-(3,4,5-trimethoxy-phenyl)-amine]
- IC50 (GST-JAK2): 0.147 µM
- melting point: 192 to 196 °C

Compound: COc1cc(Nc2nc3cccc(-c4ccc(C#N)cc4)c3o2)cc(OC)c1OC [Example 19, 4-[2-(3,4,5-Trimethoxy-phenylamino)-benzooxazol-7-yl]-benzonitrile]
- IC50 (GST-JAK2): 0.17 µM
- melting point: 222 to 223 °C

Compound: COc1cc(Nc2nc3cccc(-c4ccc5ncccc5c4)c3o2)cc(OC)c1OC [Example 15, (7-Quinolin-6-yl-benzooxazol-2-yl)-(3,4,5-trimethoxy-phenyl)-amine]
- IC50 (GST-JAK2): 0.57 µM
- melting point: 187 to 190 °C

Compound: COc1cc(Nc2nc3cccc(-c4ccc(S(=O)(=O)N(C)C)cc4)c3o2)cc(OC)c1OC [Example 22, N,N-Dimethyl-4-[2-(3,4,5-trimethoxy-phenylamino)-benzooxazol-7-yl]-benzenesulfonamide]
- IC50 (GST-JAK2): 0.14 µM
- melting point: 230 to 233 °C

Compound: COc1ccccc1-c1cccc2nc(Nc3cc(OC)c(OC)c(OC)c3)oc12 [Example 5, [7-(2-Methoxy-phenyl)-benzooxazol-2-yl]-(3,4,5-trimethoxy-phenyl)-amine]
- IC50 (GST-JAK2): 0.15 µM
- melting point: 185 to 187 °C

Compound: Nc1ccc(-c2cccc3nc(Nc4ccc(N5CCOCC5)cc4)oc23)cc1 [Example 40, [7-(4-Aminophenyl)-benzooxazol-2-yl]-(4-morpholin-4-yl-phenyl)-amine]
- IC50 (GST-JAK2): 1.1 µM
- melting point: 241 to 243 °C

Compound: COc1cc(Nc2nc3cccc(-c4ccc(S(=O)(=O)N5CCOCC5)cc4)c3o2)cc(OC)c1OC [Example 23, {7-[4-(Morpholine-4-sulfonyl)-phenyl]-benzooxazol-2-yl}-(3,4,5-trimethoxy-phenyl)-amine]
- IC50 (GST-JAK2): 0.19 µM
- melting point: 201 to 203 °C

Compound: COc1cc(Nc2nc3cccc(-c4ccc(CNC(C)=O)cc4)c3o2)cc(OC)c1OC (hydrate or solvate) [Example 30, N-{4-[2-(3,4,5-Trimethoxy-phenylamino)-benzooxazol-7-yl]-benzyl}-acetamide]
- melting point: 237 to 239 °C

Compound: COc1cc(Nc2nc3cccc(-c4ccc(NC(C)=O)cc4)c3o2)cc(OC)c1OC (hydrate or solvate) [Example 27, N-{4-[2-(3,4,5-Trimethoxy-phenylamino)-benzooxazol-7-yl]-phenyl}-acetamide]
- melting point: 265 to 270 °C

Compound: COc1ccc(-c2cccc3nc(Nc4cc(OC)c(OC)c(OC)c4)oc23)cc1 [Example 7, [7-(4-Methoxy-phenyl)-benzooxazol-2-yl]-(3,4,5-trimethoxy-phenyl)-amine]
- melting point: 179 to 182 °C

Compound: COc1cc(Nc2nc3cccc(-c4ccc(CC(=O)N5CCOCC5)cc4)c3o2)cc(OC)c1OC [Example 140, 1-Morpholin-4-yl-2-{4-[2-(3,4,5-trimethoxy-phenylamino)-benzooxazol-7-yl]-phenyl}-ethanone]
- IC50 (GST-JAK2): 0.14 µM
- IC50 (GST-JAK2(808-1132)): 0.0037 µM

Compound: CN(C)CCNC(=O)c1ccc(Nc2nc3cccc(-c4ccc(S(N)(=O)=O)cc4)c3o2)cc1 [Example 57, N-(2-Dimethylamino-ethyl)-4-[7-(4-sulfamoyl-phenyl)-benzooxazol-2-ylamino]-benzamide]
- IC50 (GST-JAK2): 0.15 µM
- IC50 (GST-JAK2(808-1132)): 0.037 µM

Compound: CNS(=O)(=O)c1ccc(-c2cccc3nc(Nc4ccc(OC)cc4)oc23)cc1 [Example 139, 4-[2-(4-Methoxy-phenylamino)-benzooxazol-7-yl]-N-methyl-benzenesulfonamide]
- IC50 (GST-JAK2): 0.4 µM
- IC50 (GST-JAK2(808-1132)): 0.12 µM

Compound: COc1cc(Nc2nc3cccc(-c4ccc(C(=O)N5CCN(C)CC5)cc4)c3o2)cc(OC)c1OC [Example 142, (4-Methyl-piperazin-1-yl)-{4-[2-(3,4,5-trimethoxy-phenylamino)-benzooxazol-7-yl]-phenyl}-methanone]
- IC50 (GST-JAK2): 0.7 µM
- IC50 (GST-JAK2(808-1132)): 0.0585 µM

Compound: COc1cc(Nc2nc3cccc(-c4ccc5[nH]cnc5c4)c3o2)cc(OC)c1OC (hydrate or solvate) [Example 35, [7-(1H-Benzoimidazol-5-yl)-benzooxazol-2-yl]-(3,4,5-trimethoxy-phenyl)-amine]
- melting point: 150 to 156 °C

Compound: COCCNC(=O)c1ccc(Nc2nc3cccc(-c4ccc(S(N)(=O)=O)cc4)c3o2)cc1 [Example 56, N-(2-Methoxy-ethyl)-4-[7-(4-sulfamoyl-phenyl)-benzooxazol-2-ylamino]-benzamide]
- IC50 (GST-JAK2): 0.11 µM
- IC50 (GST-JAK2(808-1132)): 0.051 µM

Compound: COc1cc(Nc2nc3cccc(-c4ccc(CNS(C)(=O)=O)cc4)c3o2)cc(OC)c1OC [Example 31, N-{4-[2-(3,4,5-Trimethoxy-phenylamino)-benzooxazol-7-yl]-benzyl}-methanesulfonamide]
- IC50 (GST-JAK2): 0.0605 µM
- IC50 (GST-JAK2(808-1132)): 0.0162 µM
